Values after ≈ are worked out from the molar mass of the structure shown. Where a name gives a salt, the structure may show the parent alone.
Legend:
[1] = tested on: K562/ADR (K562adr, drug-resistant chronic myeloid leukemia) cells; experiment: MTT cell growth inhibition, leukemia cells; assay type: cell-based; settings: Homo sapiens, K562/Adr, 72 h
Text: (§1) Leukemia cell lines: leukemia cell lines: K562adr (drug-resistant, chronic myeloid leukemia, CML), NB4 (acute promyelocytic leukemia, AML), Kasumi-1 (acute myeloid leukemia M2 type, AML-M2), Jurkat (acute lymphoblastic leukemia, ALL), all of which were donated by Cancer Research Institute of Zhejiang University, China; and H9 (acute lymphoblastic leukemia, ALL), which was purchased from China Center for Type Culture Collection.
(§2) Reagents: The standard sample of fangchinoline (FAN) was purchased from Ci Yuan Biotechnology Co., Ltd., Shaanxi, China; and the 7-substituted fangchinoline derivatives according to the present invention.
(§3) 6000 well-growing leukemia cells were obtained and inoculated into wells of a 96-well cell culture plate. The culture medium was a RPMI-1640 cell culture medium containing 10% fetal bovine serum. After adding the 7-substituted fangchinoline derivatives of different concentrations the next day and mixing uniformly, the plate was placed in a carbon dioxide cell incubator (5% CO2) at 37° C. and incubating for 72 hours. Then the viable cell concentration was determined by the MTT method.

[2] = tested on: NB4 (acute promyelocytic leukemia) cells; experiment: MTT cell growth inhibition, leukemia cells; assay type: cell-based; settings: Homo sapiens, 72 h
Text: as §1, §2, §3

[3] = tested on: RPMI 8226 (multiple myeloma) cells; experiment: MTT cell growth inhibition, multiple myeloma cells; assay type: cell-based, human; settings: Homo sapiens, RPMI-8226, 72 h
Procedure: Myeloma cell lines: RPMI8226 (multiple myeloma), purchased from Fuxiang Bio-tech Co. Ltd., Shanghai, China.
as §3, with “well-growing” for “well-growing leukemia”, “incubated” for “incubating”

[4] = tested on: human colon cancer cell line LoVo; settings: LoVo tumor-bearing nude mice, 60 days; cited from earlier work
[5] = tested on: PC-3 (prostate cancer) cells; experiment: MTT cell growth inhibition, solid tumor cells; assay type: cell-based, human; settings: Homo sapiens, 72 h
Text: (§4) Hep-2 (laryngeal carcinoma), A549 (human lung cancer), CaES-17 (esophageal cancer cell), PC-3 (prostate cancer), CNE (nasopharyngeal carcinoma cell) and SK-OV-3 (ovarian cancer cell), all of which were purchased from China Center For Type Culture Collection; RKO (human colon adenocarcinoma cell), MGC-803 (human gastric cancer cell), MG-63 (osteosarcoma), and U87-MG (malignant glioma cell), all of which were purchased from Fuxiang Bio-tech Co. Ltd., Shanghai, China; PANC-1 (pancreatic cancer), Becap37 (human breast cancer cell), Hela (human cervical cancer cell) and Hep G2 (human liver cancer cell), all of which were donated by Cancer Research Institute of Zhejiang University, China.
as §3, with “human solid tumor” for “leukemia”, “DMEM High Glucose” for “a RPMI-1640”, “serum. The plate was placed in a carbon dioxide cell incubator (5% CO2) at 37° C. and incubated for 24 hours.” for “serum.”, “added with” for “adding the”, “concentration” for “concentrations the next day”, “incubated” for “incubating”

[6] = tested on: CaEs-17 (esophageal cancer) cells; experiment: MTT cell growth inhibition, solid tumor cells; assay type: cell-based, human; settings: Homo sapiens, CaEs17, 72 h
Text: as §4
as §3, with “human solid tumor” for “leukemia”, “DMEM High Glucose” for “a RPMI-1640”, “serum. The plate was placed in a carbon dioxide cell incubator (5% CO2) at 37° C. and incubated for 24 hours.” for “serum.”, “added with” for “adding the”, “concentration” for “concentrations the next day”, “incubated” for “incubating”

[7] = tested on: CNE (nasopharyngeal carcinoma) cells; experiment: MTT cell growth inhibition, solid tumor cells; assay type: cell-based, human; settings: Homo sapiens, 72 h
Text: as §4
as §3, with “human solid tumor” for “leukemia”, “DMEM High Glucose” for “a RPMI-1640”, “serum. The plate was placed in a carbon dioxide cell incubator (5% CO2) at 37° C. and incubated for 24 hours.” for “serum.”, “added with” for “adding the”, “concentration” for “concentrations the next day”, “incubated” for “incubating”

[8] = tested on: PANC-1 (pancreatic cancer) cells; experiment: MTT cell growth inhibition, solid tumor cells; assay type: cell-based, human; settings: Homo sapiens, PANC-1, 72 h
Text: as §4
as §3, with “human solid tumor” for “leukemia”, “DMEM High Glucose” for “a RPMI-1640”, “serum. The plate was placed in a carbon dioxide cell incubator (5% CO2) at 37° C. and incubated for 24 hours.” for “serum.”, “added with” for “adding the”, “concentration” for “concentrations the next day”, “incubated” for “incubating”

[9] = tested on: SK-OV-3 (ovarian cancer) cells; experiment: MTT cell growth inhibition, solid tumor cells; assay type: cell-based, human; settings: Homo sapiens, SK-OV-3, 72 h
Text: as §4
as §3, with “human solid tumor” for “leukemia”, “DMEM High Glucose” for “a RPMI-1640”, “serum. The plate was placed in a carbon dioxide cell incubator (5% CO2) at 37° C. and incubated for 24 hours.” for “serum.”, “added with” for “adding the”, “concentration” for “concentrations the next day”, “incubated” for “incubating”

[10] = tested on: U87-MG (malignant glioma) cells; experiment: MTT cell growth inhibition, solid tumor cells; assay type: cell-based; settings: Homo sapiens, U-87 MG, 72 h
Text: as §4
as §3, with “human solid tumor” for “leukemia”, “DMEM High Glucose” for “a RPMI-1640”, “serum. The plate was placed in a carbon dioxide cell incubator (5% CO2) at 37° C. and incubated for 24 hours.” for “serum.”, “added with” for “adding the”, “concentration” for “concentrations the next day”, “incubated” for “incubating”

[11] = tested on: A549 (human lung cancer) cells; experiment: MTT cell growth inhibition, solid tumor cells; assay type: cell-based; settings: Homo sapiens, A549, 72 h
Text: as §4
as §3, with “human solid tumor” for “leukemia”, “DMEM High Glucose” for “a RPMI-1640”, “serum. The plate was placed in a carbon dioxide cell incubator (5% CO2) at 37° C. and incubated for 24 hours.” for “serum.”, “added with” for “adding the”, “concentration” for “concentrations the next day”, “incubated” for “incubating”

[12] = tested on: RKO (human colon adenocarcinoma) cells; experiment: MTT cell growth inhibition, solid tumor cells; assay type: cell-based; settings: Homo sapiens, 72 h
Text: as §4
as §3, with “human solid tumor” for “leukemia”, “DMEM High Glucose” for “a RPMI-1640”, “serum. The plate was placed in a carbon dioxide cell incubator (5% CO2) at 37° C. and incubated for 24 hours.” for “serum.”, “added with” for “adding the”, “concentration” for “concentrations the next day”, “incubated” for “incubating”

[13] = tested on: Becap-37 (human breast cancer) cells; experiment: MTT cell growth inhibition, solid tumor cells; assay type: cell-based; settings: Homo sapiens, 72 h
Text: as §4
as §3, with “human solid tumor” for “leukemia”, “DMEM High Glucose” for “a RPMI-1640”, “serum. The plate was placed in a carbon dioxide cell incubator (5% CO2) at 37° C. and incubated for 24 hours.” for “serum.”, “added with” for “adding the”, “concentration” for “concentrations the next day”, “incubated” for “incubating”

[14] = tested on: Hela (human cervical cancer) cells; experiment: MTT cell growth inhibition, solid tumor cells; assay type: cell-based; settings: Homo sapiens, HeLa, 72 h
Text: as §4
as §3, with “human solid tumor” for “leukemia”, “DMEM High Glucose” for “a RPMI-1640”, “serum. The plate was placed in a carbon dioxide cell incubator (5% CO2) at 37° C. and incubated for 24 hours.” for “serum.”, “added with” for “adding the”, “concentration” for “concentrations the next day”, “incubated” for “incubating”

[15] = tested on: Hep G2 (human liver cancer) cells; experiment: MTT cell growth inhibition, solid tumor cells; assay type: cell-based; settings: Homo sapiens, HepG2, 72 h
Text: as §4
as §3, with “human solid tumor” for “leukemia”, “DMEM High Glucose” for “a RPMI-1640”, “serum. The plate was placed in a carbon dioxide cell incubator (5% CO2) at 37° C. and incubated for 24 hours.” for “serum.”, “added with” for “adding the”, “concentration” for “concentrations the next day”, “incubated” for “incubating”

[16] = tested on: Hep-2 (laryngeal carcinoma) cells; experiment: MTT cell growth inhibition, solid tumor cells; assay type: cell-based; settings: Homo sapiens, HEp-2, 72 h
Text: as §4
as §3, with “human solid tumor” for “leukemia”, “DMEM High Glucose” for “a RPMI-1640”, “serum. The plate was placed in a carbon dioxide cell incubator (5% CO2) at 37° C. and incubated for 24 hours.” for “serum.”, “added with” for “adding the”, “concentration” for “concentrations the next day”, “incubated” for “incubating”

[17] = tested on: MG-63 (osteosarcoma) cells; experiment: MTT cell growth inhibition, solid tumor cells; assay type: cell-based; settings: Homo sapiens, MG-63, 72 h
Text: as §4
as §3, with “human solid tumor” for “leukemia”, “DMEM High Glucose” for “a RPMI-1640”, “serum. The plate was placed in a carbon dioxide cell incubator (5% CO2) at 37° C. and incubated for 24 hours.” for “serum.”, “added with” for “adding the”, “concentration” for “concentrations the next day”, “incubated” for “incubating”

[18] = tested on: MGC-803 (human gastric cancer) cells; experiment: MTT cell growth inhibition, solid tumor cells; assay type: cell-based; settings: MGC-803, 72 h
Text: as §4
as §3, with “human solid tumor” for “leukemia”, “DMEM High Glucose” for “a RPMI-1640”, “serum. The plate was placed in a carbon dioxide cell incubator (5% CO2) at 37° C. and incubated for 24 hours.” for “serum.”, “added with” for “adding the”, “concentration” for “concentrations the next day”, “incubated” for “incubating”

[19] = tested on: Jurkat (acute lymphoblastic leukemia) cells; experiment: MTT cell growth inhibition, leukemia cells; assay type: cell-based, human; settings: Homo sapiens, Jurkat, 72 h
Text: as §1, §2, §3

[20] = tested on: H9 (acute lymphoblastic leukemia) cells; experiment: MTT cell growth inhibition, leukemia cells; assay type: cell-based, human; settings: Homo sapiens, 72 h
Text: as §1, §2, §3

[21] = tested on: Kasumi-1 (acute myeloid leukemia M2 type) cells; experiment: MTT cell growth inhibition, leukemia cells; assay type: cell-based, human; settings: Homo sapiens, Kasumi 1, 72 h
Text: as §1, §2, §3

[22] = tested on: Hep G2 transplanted tumor; experiment: Transplanted tumor of liver cancer in nude mice; settings: BS-FC-308 35 mg/kg/time, erlotinib hydrochloride 20 mg/kg/time
Procedure: Liver cancer cell lines: Hep G2 (human liver cancer cell line);
Animal: BALBc nude mice (immunodeficient mice), 8 weeks, female, purchased from Shanghai Laboratory Animal Center of Chinese Academy of Sciences, China.
Under sterile conditions, the Hep G2 cells in the logarithmic growth phase were respectively collected and injected subcutaneously in an amount of 2.3×10^7/0.2 mL/nude mice (cell viability >90%) into the left subaxillary of the nude mice, thus establishing a transplanted tumor model of liver cancer in nude mice. The mice were administered from the second day after inoculation. The experimental group was intragastrically administered with the experimentally designed amount, the negative control group was intragastrically administered with sterile water, and the positive control group was intragastrically administered with erlotinib hydrochloride. Each mouse was intragastrically administered in 0.4 ml each time and 3 times a day, at 8:00, 14:00 and 20:00, with 6-hour intervals. The administrations were successive for 10 days. The day before administration was deemed as Day 0 and the weight and tumor size of the mice were determined every 5 days to produce a dynamic plot on weight and tumor growth (the experimental results are presented as mean±SD). On Day 28, the mice were sacrificed and the tumors were taken out and weighed. The tumor inhibition rate (%) after the effect of the medicament was calculated based on a tumor inhibition rate of the control group being zero.
The experimental data for each group were analyzed by using the One-way ANOVA method in the SPSS 19.0 statistical software and were compared with the control group for significance of difference.

## COc1ccc2cc1Oc1ccc(cc1)C[C@H]1c3cc(c(OC)cc3CCN1C)Oc1c(O)c(OC)cc3c1[C@H](C2)N(C)CC3 [FAN, Fangchinoline, reference compound]
[1]
  IC50: 0.36 µg/mL (≈ 0.591 µM)
  IC90: 4.13 µg/mL (≈ 6.78 µM)
[2]
  IC50: 0.58 µg/mL (≈ 0.953 µM)
  IC90: 2.59 µg/mL (≈ 4.25 µM)
[3]
  IC50: 0.04 µg/mL (≈ 0.0657 µM)
  IC90: 0.5 µg/mL (≈ 0.821 µM)
[4]
  adverse reactions during the administration: do not exhibit adverse reactions
[5]
  IC50: 4.08 µg/mL (≈ 6.7 µM)
  IC90: 7.64 µg/mL (≈ 12.6 µM)
[6]
  IC50: 1.94 µg/mL (≈ 3.19 µM)
  IC90: 8.98 µg/mL (≈ 14.8 µM)
[7]
  IC50: 2.4 µg/mL (≈ 3.94 µM)
  IC90: 5.7 µg/mL (≈ 9.36 µM)
[8]
  IC50: 3.14 µg/mL (≈ 5.16 µM)
  IC90: 11.6 µg/mL (≈ 19.1 µM)
[9]
  IC50: 3.61 µg/mL (≈ 5.93 µM)
  IC90: 14.5 µg/mL (≈ 23.8 µM)
[10]
  IC50: 1.12 µg/mL (≈ 1.84 µM)
  IC90: 3.79 µg/mL (≈ 6.23 µM)
[11]
  IC50: 3.26 µg/mL (≈ 5.36 µM)
  IC90: 9.81 µg/mL (≈ 16.1 µM)
[12]
  IC50: 0.92 µg/mL (≈ 1.51 µM)
  IC90: 3.11 µg/mL (≈ 5.11 µM)
[13]
  IC50: 1.79 µg/mL (≈ 2.94 µM)
  IC90: 6.2 µg/mL (≈ 10.2 µM)
[14]
  IC50: 1.96 µg/mL (≈ 3.22 µM)
  IC90: 6.12 µg/mL (≈ 10.1 µM)
[15]
  IC50: 1.81 µg/mL (≈ 2.97 µM)
  IC90: 5.23 µg/mL (≈ 8.59 µM)
[16]
  IC50: 3.6 µg/mL (≈ 5.91 µM)
  IC90: 10 µg/mL (≈ 16.5 µM)
[17]
  IC50: 1.7 µg/mL (≈ 2.79 µM)
  IC90: 3.7 µg/mL (≈ 6.08 µM)
[18]
  IC50: 1.08 µg/mL (≈ 1.77 µM)
  IC90: 6.42 µg/mL (≈ 10.5 µM)
[19]
  IC50: 1.73 µg/mL (≈ 2.84 µM)
  IC90: 5.25 µg/mL (≈ 8.62 µM)
[20]
  IC50: 2.4 µg/mL (≈ 3.94 µM)
  IC90: 6.6 µg/mL (≈ 10.8 µM)
[21]
  IC50: 1.11 µg/mL (≈ 1.82 µM)
  IC90: 4.11 µg/mL (≈ 6.75 µM)

## C#Cc1cccc(Nc2ncnc3cc(OCCOC)c(OCCOC)cc23)c1 [Erlotinib hydrochloride, reference compound]
[22]; Hep G2 transplanted tumor, Day 28, intragastric 3 times a day for 10 days
  Mass of tumor: 839 ± 270.62 mg
[22]; Hep G2 transplanted tumor, Day 28, intragastric 3 times a day for 10 days, control = 0
  Tumor Inhibition rate: 34.5%
[22]; Hep G2 tumor nude mice, before administration, intragastric 3 times a day, mean±SD
  Body Weight (g) Initial: 21.4 ± 0.26 g
[22]; Hep G2 tumor nude mice, final, intragastric 3 times a day for 10 days, mean±SD
  Body Weight (g) Final: 20.4 ± 1.72 g

Source: patent publication US9328122B2, “7-substituted Hanfangichin B derivative, and preparation method and use thereof” (HANGZHOU BENSHENG PHARMACEUTICAL CO., LTD., priority 2012, dated 2016)
